In article PMC8428568, “Discovery of re-purposed drugs that slow SARS-CoV-2 replication in human cells” (PLoS Pathogens, 2021):
Where a name gives a salt, the structure may show the parent alone. Read-outs that look alike come from different tables or passages of the source. *1 amine or outer side, *2 acyl side, *3 side chain or, on linkers, in order; H or OH if unused. Where a SMILES comes first, the peptide text is derived from it. Bridges are numbered along the chain shown (N, C = ends). [ ]: non-standard residue; d: D form. The star is where a group is joined. pTerphenylCO(4''-OnC5H11) = CCCCCOc1ccc(-c2ccc(-c3ccc(C(=O)*)cc3)cc2)cc1; Orn(4R-OH,5R-OH) = O=C([C@H](C[C@@H](O)[C@@H](O)N[*:3])N[*:1])[*:2]; hTyr(3S-OH,4S-OH) = N[C@H](C(=O)O)[C@H](O)[C@@H](O)c1ccc(O)cc1; Pro(3S-OH,4S-Me) = C[C@H]1CN[C@H](C(=O)O)[C@H]1O; Hyp = O=C(O)[C@@H]1C[C@@H](O)CN1

What was measured:
recombinant NLuc = assay type: biochemical; conditions: for Relative Recombinant NLUC: recombinant NLuc activity relative to DMSO; for Reads Counts per second (read 1) / Reads Counts per second (read 4) / Reads Counts per second (read 2) / Reads Counts per second (read 3): recombinant NLuc; for Reads Counts per second (read 1): first read column; for Reads Counts per second (read 4): fourth read column; for Reads Counts per second (read 3): third read column
[1] = test system: SARS-CoV-2-ΔOrf7a-NLuc virus; assay: microbe, parasite or virus in culture; assay type: cell-based; conditions: for activity at 10 µM: Severe acute respiratory syndrome coronavirus 2, Vero, 72 h, read-out: Mean relative luminescence (n=4); for activity at 10 µM / Mean relative luminescence (n=4): 1 = untreated, 0 = total inhibition
[2] = Vero cells, 10 μM, 1 = DMSO-treated infected cells

Row | Compound | Relative Recombinant NLUC (recombinant NLuc) | Reads Counts per second (read 1) (recombinant NLuc) [Counts per second] | Reads Counts per second (read 4) (recombinant NLuc) [Counts per second] | Reads Counts per second (read 2) (recombinant NLuc) [Counts per second] | Reads Counts per second (read 3) (recombinant NLuc) [Counts per second] | % activity in Vero 100PFU screen [1] [%] | activity at 10 µM [1] [%] | PrestoBlue relative viability (Vero cells; [2]) | Mean relative luminescence (n=4) [1] | PrestoBlue relative viability (Vero cells; African green monkey)
1 | C[C@]12CC[C@H](O)CC1=CC[C@@H]1[C@@H]2CC[C@]2(C)C(c3cccnc3)=CC[C@@H]12 [Abiraterone] | 0.7592 | 279631 | 289231 | 289523 | 288897 | 6.46 | 6.48 | 0.5649 |  | 
2 | CCCCCOc1ccc(-c2ccc(-c3ccc(C(=O)N[C@H]4C[C@@H](O)[C@@H](O)NC(=O)[C@@H]5[C@@H](O)[C@@H](C)CN5C(=O)[C@H]([C@@H](C)O)NC(=O)[C@H]([C@H](O)[C@@H](O)c5ccc(O)cc5)NC(=O)[C@@H]5C[C@@H](O)CN5C(=O)[C@H]([C@@H](C)O)NC4=O)cc3)cc2)cc1 [Anidulafungin] ({pTerphenylCO(4''-OnC5H11)}-[Orn(4R-OH,5R-OH)]T[Hyp][hTyr(3S-OH,4S-OH)]T[Pro(3S-OH,4S-Me)]; lactam 1-C) | 0.974 | 365229 | 366012 | 376574 | 364202 | 4.57 | 2.32 | 0.5453 |  | 
3 | COc1ccc(-n2nc(C(N)=O)c3c2C(=O)N(c2ccc(N4CCCCC4=O)cc2)CC3)cc1 [Apixaban] |  |  |  |  |  |  | 0.124 | 2.564 |  | 
4 | O=C(/C=C/c1cccc(S(=O)(=O)Nc2ccccc2)c1)NO [Belinostat (PXD101), Belinostat] | 0.9408 | 351877 | 355423 | 362403 | 352055 | 4.67 | 0.0366 | 0.895 |  | 
5 | Clc1ccc(CCC(Cn2ccnc2)Sc2c(Cl)cccc2Cl)cc1 (stereo not drawn) [Butoconazole nitrate] |  |  |  |  |  |  | 11.6 | 0.6922 |  | 
6 | C=CC(=O)Nc1cccc(Nc2nc(Nc3ccc(N4CCN(C(C)=O)CC4)cc3OC)ncc2C(F)(F)F)c1 [CO-1686 (AVL-301)] | 0.8551 | 327566 | 319872 |  | 324163 | 3 |  | 0.5096 | 0.02339 | 
7 | COc1cc2c(Oc3ccc4[nH]c(C)cc4c3F)ncnc2cc1OCCCN1CCCC1 [Cediranib (AZD217), Cediranib] | 0.9439 | 350524 | 362844 |  | 354116 | 3.31 | 2.67 | 0.559 |  | 
8 | Oc1c(Cl)cc(Cl)c2cccnc12 [Chloroxine] | 0.9975 | 380665 | 374884 |  | 374596 | 6.5 | 3.55 | 0.5777 |  | 
9 | CC(C)C(=O)OCC(=O)[C@@]12O[C@H](C3CCCCC3)O[C@@H]1C[C@H]1[C@@H]3CCC4=CC(=O)C=C[C@]4(C)[C@H]3[C@@H](O)C[C@@]12C [Ciclesonide] |  |  |  |  |  |  | 14.1 | 0.5125 |  | 
10 | Clc1ccccc1C(c1ccccc1)(c1ccccc1)n1ccnc1 [Clotrimazole] |  |  |  |  |  |  | 13.9 | 1.057 |  | 
11 | C#C[C@]1(O)CC[C@H]2[C@@H]3CCC4=CCCC[C@@H]4[C@H]3C(=C)C[C@@]21CC [Desogestrel] |  |  |  |  |  |  | 14.5 | 0.6657 |  | 
12 | C=C1/C(=C\C=C2/CCC[C@]3(C)[C@@H]([C@H](C)/C=C/[C@H](C)C(C)C)CC[C@@H]23)C[C@@H](O)C[C@@H]1O [Doxercalciferol] | 0.9613 | 361602 | 356613 |  | 370984 | 8 | 5.56 | 0.5418 |  | 
13 | CC1=NN(c2ccc(C)c(C)c2)C(=O)/C1=N\Nc1cccc(-c2cccc(C(=O)O)c2)c1O [Eltrombopag] | 0.8666 | 331875 | 322913 |  | 331553 | 3.72 | 0.991 | 0.7191 |  | 
14 | COc1cccc2c1C(=O)c1c(O)c3c(c(O)c1C2=O)C[C@@](O)(C(=O)CO)C[C@@H]3O[C@H]1C[C@H](N)[C@@H](O)[C@H](C)O1 [Epirubicin HCl] | 0.8025 | 298948 | 310338 |  | 302560 | 3.44 | 2.8 |  |  | 0.9127
15 | CCCCCCCCc1ccc(CCC(N)(CO)CO)cc1 [Fingolimod (FTY720), Fingolimod] | 0.9393 | 354171 | 351555 |  | 356587 | 3 | 0.757 | 0.6911 |  | 
16 | CC(=O)[C@]1(O)Cc2c(O)c3c(c(O)c2[C@@H](O[C@H]2C[C@H](N)[C@H](O)[C@H](C)O2)C1)C(=O)c1ccccc1C3=O [Idarubicin HCl] | 0.861 | 327538 | 318222 |  | 325691 | 2.14 | 1.49 | 0.5406 |  | 
17 | Cc1cc(Nc2cc(CN3CCOCC3)c3nc(C)c(Cc4ccc(Cl)cc4F)n3n2)n[nH]1 [LY2784544] |  |  |  |  |  |  | 0.145 | 0.7859 |  | 
18 | Nc1cccc2c1CN(C1CCC(=O)NC1=O)C2=O (stereo not drawn) [Lenalidomide (CC-5013), Lenalidomide] |  |  |  |  |  |  | 0.218 | 2.058 |  | 
19 | CCN1C[C@H](C)n2c(c(O)c3c(=O)n(Cc4ccc(F)c(Cl)c4)nc(C(=O)NC)c32)C1=O [MK-2048] |  |  |  |  |  |  |  | 2.267 | 0.000491 | 
20 | NCCC(O)(P(=O)([O-])O)P(=O)([O-])O.[Na+].[Na+] [Pamidronate Disodium] | 0.8313 | 309519 | 313941 |  | 313471 | 2.29 |  | 0.5456 | 0.01648 | 
21 | CCc1ccc(CCOc2ccc(CC3SC(=O)NC3=O)cc2)nc1 (stereo not drawn) [Pioglitazone HCl] |  |  |  |  |  |  | 0.204 |  |  | 3.485
22 | COc1ccccc1OCC(O)CN1CCN(CC(=O)Nc2c(C)cccc2C)CC1 (stereo not drawn) [Ranolazine] | 0.9679 | 359507 | 367791 |  | 367539 | 167 |  |  |  | 
23 | CN(CCOc1ccc(CC2SC(=O)NC2=O)cc1)c1ccccn1 (stereo not drawn) [Rosiglitazone] |  |  |  |  |  |  | 0.183 | 3.111 |  | 
24 | N#CC[C@H](C1CCCC1)n1cc(-c2ncnc3[nH]ccc23)cn1 [Ruxolitinib (INCB018424), Ruxolitinib] | 0.8381 | 314540 | 316727 |  | 317488 | 169 |  |  |  | 
25 | N[C@@H](CC(=O)N1CCn2c(nnc2C(F)(F)F)C1)Cc1cc(F)c(F)cc1F [Sitagliptin phosphate monohydrate] |  |  |  |  |  |  | 0.0141 | 2.5607 |  | 
26 | CCCCCCCCCCCCCCCC[N+](C)(C)CCN(Cc1ccc(OC)cc1)c1ncccn1 [Thonzonium Bromide] |  |  |  |  |  |  | 10.4 | 0.6049 |  | 
27 | Oc1cc(Cl)ccc1Oc1ccc(Cl)cc1Cl [Triclosan] |  |  |  |  |  |  | 10.6 | 0.5234 |  | 
28 | (+)-Catechin hydrate | 0.9621 | 362209 | 367703 | 357899 | 366108 | 160 |  |  |  | 
29 | Bivalirudin Trifluoroacetate | 0.8139 | 309590 | 301908 | 311058 | 307409 | 172 |  |  |  | 
